Assay results as given in paper PMC12649353, “Bioavailability of Thymol Incorporated into Gastro-Resistant Self-Emulsifying Pellets in Rabbits” (Animals : an Open Access Journal from MDPI, 2025).
Values joined by “and” are separate entries in the source; they are usually repeats but may differ in a detail not shown here. Equal values may be shown once. Read-outs that look alike come from different tables or passages of the source.

Tests used:
[1] = Thymol stability in feed (HPLC); type: physicochemical; settings: enteric SES pellets in feed
Method: Thymol evaporation in feed was analysed every week during thymol application using high-performance liquid chromatography (HPLC) according to the modified method of Oceľová [10] and Pisarčíková et al.. Samples were analysed in triplicate. Briefly, 2 mL of methanol was added to a glass tube containing 0.2 g of milled feed, and thymol was extracted in an ultrasonic bath. The methanolic extract was then analysed using the HPLC method with an Ultimate 3000 HPLC-system liquid chromatograph (Dionex, Sunnyvale, CA, USA). The chromatographic analyses were evaluated using Chromeleon® Software Version 6.80 SR10 Build 2906 (Thermo Fisher Scientific, Waltham, MA, USA).

[2] = Growth performance of broiler rabbits fed thymol pellets; type: in vivo; settings: for live weight / average weight gain per rabbit / conversion ratio: EG
Method: The experiment lasted 28 days.
Body weight (BW) and feed intake (FI) were recorded individually once a week. The average daily FI, average daily weight gain (WG) and feed conversion ratio (FCR) were calculated at the end of the period (at 56 d of age and 63 d of age).

[3] = Thymol in plasma, tissues, large intestinal content and faeces (SPME GC/MS)
Method: A total of 48 rabbits of both sexes (an equal male-to-female ratio per treatment) at five weeks of age were randomly divided into two dietary treatment groups (24 rabbits in each); a control group (CG) fed a standard diet to which enteric pellets without thymol were added and an experimental group (EG) fed a standard diet into which enteric pellets with thymol (250 mg/kg) were incorporated. Plasma and tissue samples from the control group were used as blank samples to construct calibration curves. The rabbits of meat line M91, maternal albinotic line (cross breed New Zealand White, Bouscat rabbit, Argente Champagnet rabbit) and paternal acromalictic line (crossbreed Nitra’s rabbit, Californian rabbit, Big light silver) were used in this experiment. The animals were fed ad libitum and had free access to drinking water. All the experimental wire-net cages (61 cm × 34 cm × 33 cm) were kept in rooms with automatic temperature and humidity control through a digital thermograph (22 ± 4 °C, 70 ± 5%). A lighting regimen of 16 h light and 8 h dark was applied throughout the experiment. The experiment lasted 28 days. The EG rabbits received feed with thymol pellets for 21 days (56 d of age) and for the next 7 days (63 d of age) received pellets without thymol incorporated into feed.
To determine the thymol content in plasma, blood (1.5 mL) from nine rabbits was collected from the marginal ear vein (vena auricularis) into heparinised Eppendorf tubes, and plasma was obtained after centrifugation at 1180× g for 15 min. The gastrointestinal tract was removed from the body cavity and was divided into the small intestine (duodenum and jejunum), caecum and colon (n = 9). Caecum and colon contents were removed, and the small intestinal lumen was gently washed with a 0.9% NaCl solution. The obtained samples of duodenal wall (DW), jejunal wall (JW) and gut content together with plasma, liver, kidney, muscle (longissimus thoracis et lumborum, LTL) and spleen tissue, fat, and faeces were immediately frozen in liquid nitrogen and stored at −70 °C until analysed. All samples were collected on both experimental days (56 or 63 d of age).
Thymol was determined using solid-phase microextraction (SPME) coupled with gas chromatography/mass spectrometry (GC/MS). The analytical system comprised an Agilent 7890A gas chromatograph (Agilent Technologies, Wilmington, DE, USA) interfaced with an Agilent 5975C Mass Selective Detector (VL MSD with Triple-Axis Detector), Agilent Technologies, Wilmington, DE, USA). Chromatographic separation was achieved on an HP-5MS capillary column (Agilent 19091S-433) with dimensions of 30 m in length, 0.250 mm inner diameter and 0.25 μm film thickness. Helium served as the carrier gas under strictly controlled flow (an initial flow rate of 2.77 mL/min and a post-run flow of 1.3 mL/min) and inlet pressure (approximately 23.27 psi). Sample preparation was carried out using solid-phase microextraction (SPME), a solvent-free and efficient extraction technique that utilises the adsorption of analytes onto a polymer-coated fibre. For this purpose, a 65 μm polydimethylsiloxane/divinylbenzene (PDMS/DVB) StableFlex fibre assembly (23Ga, Supelco 57293-U, Sigma-Aldrich, St. Louis, MO, USA) was employed in combination with a PAL autosampler (CTC Analytics, Zwingen, Switzerland). Due to fibre wear, the SPME fibre was replaced after every 40 to 60 samples to ensure consistent extraction performance.
For determination of the total content of thymol plasma and homogenized tissue samples were enzymatically hydrolysed with β-glucuronidase from Helix pomatia (Sigma-Aldrich, St. Louis, MO, USA) at 37 °C and pH 5 for 30 min to cleave thymol conjugates. Following hydrolysis, samples were salted out with sodium chloride (1.00 g), acidified with phosphoric acid (85%) and spiked with an o-cresol internal standard. All reagent concentrations and incubation conditions were applied as described in the previous study by Oceľová et al..

[4] = set-up: method as in earlier work; settings: weak acid; cited from earlier work
[5] = cited from earlier work
[6] = thymol 250 mg/kg feed, 56 d of age
[7] = powder form, after thymol withdrawal
[8] = same concentration of thymol, powder non-pelleted form

For `Cc1ccc(C(C)C)c(O)c1` [thymol, Thymol], the “concentration of thymol in feed” value ([1]; 0 d of thymol application) was 246.1 ± 5.8 µg/g DM, the “concentration of thymol in feed” value ([1]; 7 d of thymol application) was 197.8 ± 8.3 µg/g DM and the “concentration of thymol in feed” value ([1]; 14 d of thymol application) was 221.9 ± 5.1 µg/g DM. For the same compound, the live weight ([2]; 63 d of age (7 d after thymol withdrawal)) was 2525 ± 63.2 g, the “average weight gain per rabbit” value ([2]; 63 d of age (after withdrawal)) was 40.24 ± 2.94 g/day and the conversion ratio ([2]; 63 d of age (after withdrawal)) was 4.24 ± 0.29. The “average weight gain per rabbit” value [2, 6] was 36.25 ± 1.48 g/day, the conversion ratio [2, 6] was 4.44 ± 0.25 and the live weight ([2]; thymol 250 mg/kg feed, 56 d of age (21 d with thymol)) was 2497 ± 46.9 g. For the same compound, the growth performance ([2]; thymol addition 250 mg/kg feed vs control) was “not influenced”, the thymol in muscle ([3]; after thymol withdrawal (7 d)) was “below LOQ” and the thymol in plasma ([3]; after thymol withdrawal (7 d)) was “below LOQ”. The thymol in spleen ([3]; after thymol withdrawal (7 d)) was “below LOQ”, the “Spearman correlation (rs) of thymol concentration, DW and kidney” value ([3]; both, rabbit, in vivo) was 0.9833 and the “Spearman correlation (rs) of thymol concentration, DW and muscle” value ([3]; both, rabbit, in vivo) was 0.8167. For the same compound, the “Spearman correlation (rs) of thymol concentration, JW and muscle” value ([3]; both, rabbit, in vivo) was 0.8500, the “Spearman correlation (rs) of thymol concentration, plasma and kidney” value ([3]; both, rabbit, in vivo) was 0.9167 and the “Spearman correlation (rs) of thymol concentration, plasma and muscle” value ([3]; both, rabbit, in vivo) was 0.8667. The “thymol concentration in DW, times higher than in JW” value ([3]; both, rabbit, in vivo) was 1.1 times, the “thymol concentration in DW, times higher than in caecum” value ([3]; both, rabbit, in vivo) was 1.9 times and the “thymol concentration in DW, times higher than in colon” value ([3]; both, rabbit, in vivo) was 1.3 times. The concentration at 21 d ([3]; both, rabbit, in vivo, 250 mg/kg) was 213 ng/mL and 753 ng/g, the “Spearman correlation (rs) of thymol concentration, plasma and DW” value ([3]; both, rabbit, in vivo, 21 d) was 0.9333 and the “thymol concentration in DW, times higher than in JW” value ([3]; both, rabbit, in vivo, 21 d) was 1.4 times. For the same compound, the “thymol concentration in DW, times higher than in caecum” value ([3]; both, rabbit, in vivo, 21 d) was 1.7 times, the “thymol concentration in DW, times higher than in colon” value ([3]; both, rabbit, in vivo, 21 d) was 1.3 times and the “thymol in all tissues (plasma, liver, kidney, spleen, fat, muscle) and entire intestinal tract” value ([3]; rabbit, in vivo) was “above LOQ”. For the same compound, the “dissociation constant pKA” value [4] was 10.62, the “thymol in all intestinal segments and organs” value [5, 7] was “below the detection limit” and the thymol in spleen [5, 7] was “not detected”. The “thymol in muscle and fat tissues” value ([5]; powder form, during application) was “below the detection limit”, the “thymol concentration in DW, times lower than in caecum” value [5, 8] was 3.3 times and the “thymol concentration in DW, times lower than in colon” value [5, 8] was 2.5 times.
